What all share (assay type): cell-based
Experiment [1] concerns MCF-7. Briefly: Growth inhibition of breast cancer cell line MCF-7 (Alamar Blue). The note with it: Homo sapiens; for IC50: read-out: Half inhibitory concentration (IC50) against MCF-7. Here is the method: (§1) 1. Breast cancer cells MCF-7 (Luminal type cells) and MDA-MB-468 (basal-like cells, which are of the triple-negative type without epithelial-mesenchymal transition) were purchased from Cell Resource Center of Shanghai Institutes for Biological Sciences of the Chinese Academy of Sciences, and cultured with DMEM culture medium(containing 10% of fetal bovine serum, 10 U/mL of penicillin and 0.1 mg/mL of streptomycin) in a 5% CO2 incubator at 37[…] until the cell density was about 90%.
(§2) 2. The cells were inoculated to a 96-well plate at a cell population of 3×10^3/well and then cultured in the 5% CO2 incubator for 24 h at 37[…].
(§3) 3. Tested compounds of different concentration gradients were prepared by using the DMEM culture medium, and added into wells at 100 μL/well as tested compounds wells; and, the DMEM culture liquid was added into wells at 100 μL/well as negative control wells. At 37[…] and in the 5% CO2 incubator, the MCF-7 cells were cultured for 120 h, and MDA-MB-468 cells were cultured for 72 h.
(§4) 4. Resazurin (15 mg/50 mL), Methylene Blue (25 mg/10 mL), Potassium ferricyanide (0.329 g/100 mL) and Potassium ferrocyanide (0.422 g/100 mL) were dissolved into PBS (0.1 M, pH=7.4) to obtain Alamar Blue solution for standby.
(§5) 5. The cells were washed with PBS (0.1 M, pH=7.4) for two times, and the Alamar Blue solution was added into wells at 100 μL/well; and 100 μL of Alamar Blue solution was added into wells without cells to serve as blank control cells. The 96-well plate was placed into the 5% CO2 incubator at 37[…] and cultured for 3 h.
(§6) 6. The fluorescence value of the cells was detected at 530/590 nm by ELIASA Victor X4 (Perkin Elmer). The fluorescence value at each concentration was repetitively measured for 4 times to obtain an average value and a standard deviation. The cell viability was calculated by the following formula[User2]: […]
(§7) 7. The half inhibitory concentration (IC50) of the tested compounds againstt he cell lines was obtained according to the cell viability by Prism Graph software.

The subject of experiment [2] is MDA-MB-468. In words: Growth inhibition of breast cancer cell line MDA-MB-468 (Alamar Blue). The note with it: Homo sapiens, read-out: Half inhibitory concentration (IC50) against MDA-MB-468. As to the method:
as §1, §2, §3, §4, §5, §6, §7
A general note: The colour change of resazurin is a common sign of viable cells or microbes.

In experiment [3] the test system is human colon cancer cells HCT116. In words: Growth inhibition of human colon cancer cells HCT116. As to the method: as §1, §2, §3, §4, §5, §6, §7
(§8) Growth inhibition tests of the tested compounds 7, 17, 18, 34, 35 and 41 on the human lung cancer cells H1299, human colon cancer cells HT29, human liver cancer cells SK-HEP-1, human colon cancer cells HCT116, human normal liver cells L-02 and WRL-68 were conducted, and the method refers to Embodiment 19 “Inhibition effects of the compounds on the growth of breast cancer cells MCF-7 and MDA-MB-468”.

In experiment [4] the test system is human colon cancer cells HT29. In words: Growth inhibition of human colon cancer cells HT29. As to the method:
as §1, §2, §3, §4, §5, §6, §7, §8

Experiment [5] has as its system human normal liver cells L-02. In words: Growth inhibition of human normal liver cells L-02. Here is the method: as §1, §2, §3, §4, §5, §6, §7, §8
Experiment [6] concerns human liver cancer cells SK-HEP-1. In words: Growth inhibition of human liver cancer cells SK-HEP-1. As to the method:
as §1, §2, §3, §4, §5, §6, §7, §8

Experiment [7] has as its system human lung cancer cells H1299. Briefly: Growth inhibition of human lung cancer cells H1299. Here is the method:
as §1, §2, §3, §4, §5, §6, §7, §8

The subject of experiment [8] is human normal liver cells WRL-68. Briefly: Growth inhibition of human normal liver cells WRL-68. As to the method:
as §1, §2, §3, §4, §5, §6, §7, §8

Where [9] appears, read: HCT-116, read-out: half inhibitory concentration (IC50).
The mark [10] stands for this setting: HT-29, read-out: half inhibitory concentration (IC50).
Setting [11] is: L02, read-out: half inhibitory concentration (IC50).
The mark [12] stands for this setting: SK-HEP1, read-out: half inhibitory concentration (IC50).
The mark [13] stands for this setting: NCI-H1299, read-out: half inhibitory concentration (IC50).
The mark [14] stands for this setting: WRL68, read-out: half inhibitory concentration (IC50).

Where two headings read alike, the source gives them in different places.

Ten molecules from patent publication US10005744B2, “Compounds for the treatment or prevention of breast cancer” (JIANGSU ATOM BIOSCIENCE AND PHARMACEUTICAL CO., LTD., priority 2015, dated 2018) can be followed below.

Take `Nc1c(F)cc(-c2nc3cc(F)ccc3[se]2)cc1Br` [Compound 35, 2-bromo-6-fluoro-4-(5-fluorobenzoselenazole-2-yl)aniline]: the IC50 in experiment [1] (MCF7, 120 h) was 41.6 nM; in experiment [2] (MDA-MB-468, 72 h), 39.7 nM; in experiment [3] (setting [9]), greater than 10 µM; in experiment [4] (setting [10]) it was greater than 10 µM; in experiment [5] (setting [11]) it was greater than 10 µM; in experiment [6] (setting [12]), greater than 10 µM. The IC50 in experiment [7] (setting [13]) and in experiment [8] (setting [14]) was greater than 10 µM throughout.

Consider `Nc1ccc(-c2nc3cc(F)ccc3[se]2)cc1Br` [Compound 14, 2-bromo-4-(5-fluorobenzoselenazole-2-yl)aniline], for which the IC50 in experiment [1] (MCF7, 120 h) was determined as 188 nM; in experiment [2] (MDA-MB-468, 72 h) it was 138 nM.

In the case of `Cc1ccc(-c2nc3cc(F)ccc3[se]2)cc1N` [Compound 37, 5-(5-fluorobenzoselenazole-2-yl)-2-methylaniline], the IC50 turned out to be 450 nM in experiment [1] (MCF7, 120 h) and 114 nM in experiment [2] (MDA-MB-468, 72 h).

As usually defined, the inhibition is the percentage by which the read-out fell short of the control. As to `CC(=O)O[C@H]1C(=O)[C@@]2(C)[C@H]([C@H](OC(=O)c3ccccc3)[C@]3(O)C[C@H](OC(=O)[C@H](O)[C@@H](NC(=O)c4ccccc4)c4ccccc4)C(C)=C1C3(C)C)[C@]1(OC(C)=O)CO[C@@H]1C[C@@H]2O` [Paclitaxel, paclitaxel, reference compound], the IC50 is 4.6 nM in experiment [1] (MCF7, MCF-7 cells cultured 120 h with compound, Alamar Blue); 4.43 nM in experiment [2] (MDA-MB-468 cells cultured 72 h with compound, Alamar Blue); 0.00159 to 0.0153 µM in experiment [3] (HCT-116, HCT116 cells, range stated over the six cell lines, read-out: half inhibitory concentration (IC50)); 0.00159 to 0.0153 µM in experiment [4] (HT-29, HT29 cells, range stated over the six cell lines, read-out: half inhibitory concentration (IC50)); 0.00159 to 0.0153 µM in experiment [5] (L02, L-02 cells, range stated over the six cell lines, read-out: half inhibitory concentration (IC50)); 0.00159 to 0.0153 µM in experiment [6] (SK-HEP1, SK-HEP-1 cells, range stated over the six cell lines, read-out: half inhibitory concentration (IC50)). Also, the IC50 is 0.00159 to 0.0153 µM in experiment [7] (NCI-H1299, H1299 cells, range stated over the six cell lines, read-out: half inhibitory concentration (IC50)) and 0.00159 to 0.0153 µM in experiment [8] (WRL68, WRL-68 cells, range stated over the six cell lines, read-out: half inhibitory concentration (IC50)). Further, the inhibition at 0.5 µM in experiment [1] (MCF7, highest concentration, 500 nM, read-out: inhibition rate to MCF-7 cell line) was found to be 70%.

`Cc1cc(-c2nc3cc(F)ccc3[se]2)cc(Br)c1N` [Compound 18, 2-bromo-4-(5-fluorobenzoselenazole-2-yl)-6-methylaniline]: the IC50 in experiment [1] (MCF7, 120 h) is 91.9 nM; in experiment [2] (MDA-MB-468, 72 h), 70.9 nM; in experiment [3] (setting [9]), greater than 10 µM; in experiment [4] (setting [10]), greater than 10 µM; in experiment [5] (setting [11]) it was greater than 10 µM; in experiment [6] (setting [12]) it was greater than 10 µM. In addition, the IC50 in experiment [7] (setting [13]) and in experiment [8] (setting [14]) was greater than 10 µM in each case.

Consider `Cc1ccc2[se]c(-c3ccc(N)c(C)c3)nc2c1` [Compound 26, 2-methyl-4-(5-methylbenzoselenazole-2-yl)aniline], for which the IC50 in experiment [1] (MCF7, 120 h) stood at 134 nM.

For `Nc1c(F)cc(-c2nc3cc(F)ccc3[se]2)cc1F` [Compound 41, 2,6-difluoro-4-(5-fluorobenzoselenazole-2-yl)aniline], the IC50 in experiment [1] (MCF7, 120 h) is 56.8 nM; in experiment [2] (MDA-MB-468, 72 h) it was 20.1 nM; in experiment [3] (setting [9]), greater than 10 µM; in experiment [4] (setting [10]), greater than 10 µM; in experiment [5] (setting [11]), greater than 10 µM; in experiment [6] (setting [12]), greater than 10 µM. Besides, the IC50 in experiment [7] (setting [13]) and in experiment [8] (setting [14]) was greater than 10 µM each time.

On to `Nc1ccc(-c2nc3cc(F)ccc3[se]2)cc1F` [Compound 34, 2-fluoro-4-(5-fluorobenzoselenazole-2-yl)aniline], for which the IC50 in experiment [1] (MCF7, 120 h) was 52.4 nM; in experiment [2] (MDA-MB-468, 72 h), 29.1 nM; in experiment [3] (setting [9]), greater than 10 µM; in experiment [4] (setting [10]) it was greater than 10 µM; in experiment [5] (setting [11]) it was greater than 10 µM; in experiment [6] (setting [12]) it was greater than 10 µM. The IC50 in experiment [7] (setting [13]) and in experiment [8] (setting [14]) was greater than 10 µM throughout.

Regarding `Nc1ccc(-c2nc3ccccc3[se]2)cc1Br` [Compound 7, 4-(benzoselenazole-2-yl)-2-bromoaniline], the IC50 in experiment [1] (MCF7, 120 h) was 56.7 nM; in experiment [2] (MDA-MB-468, 72 h) it was 74.1 nM; in experiment [3] (setting [9]), greater than 10 µM; in experiment [4] (setting [10]) it was greater than 10 µM; in experiment [5] (setting [11]), greater than 10 µM; in experiment [6] (setting [12]), greater than 10 µM. Besides, the IC50 in experiment [7] (setting [13]) and in experiment [8] (setting [14]) was greater than 10 µM throughout.

Take `Cc1cc(-c2nc3cc(F)ccc3[se]2)ccc1N` [Compound 17, 4-(5-fluorobenzoselenazole-2-yl)-2-methylaniline]: the IC50 was 72.8 nM in experiment [1] (MCF7, 120 h); 58.5 nM in experiment [2] (MDA-MB-468, 72 h); greater than 10 µM in experiment [3] (setting [9]); greater than 10 µM in experiment [4] (setting [10]); greater than 10 µM in experiment [5] (setting [11]); greater than 10 µM in experiment [6] (setting [12]). The IC50 in experiment [7] (setting [13]) and in experiment [8] (setting [14]) was greater than 10 µM each time.
